Measured values published in the NIST ThermoML archive (doi:10.1016/j.jct.2016.10.009).

Test: xn = mol fraction of the nth substance listed
Settings: 393.28 K, Liquid, Vibrating tube method

CC(C)OC(C)C [diisopropyl ether] + CCC(C)O
mass density [kg/m3]
Settings | x2 = 0 | x2 = 0.2036 | x2 = 0.3227 | x2 = 0.4464 | x2 = 0.4973 | x2 = 0.6595 | x2 = 0.8482
10000 kPa | – | 647 | 655.3 | 664.6 | 668.8 | 683.2 | 702.2
15000 kPa | 645.8 | 657.1 | 665 | 673.9 | 677.9 | 691.5 | 709.7
20000 kPa | 655.2 | 666 | 673.6 | 682 | 685.8 | 698.9 | 716.3
25000 kPa | 663.5 | 674 | 681.2 | 689.5 | 693.1 | 705.7 | 722.6
30000 kPa | 671.1 | 681.1 | 688.2 | 696.2 | 699.8 | 712 | 728.4
35000 kPa | 677.9 | 687.8 | 694.7 | 702.5 | 705.9 | 717.8 | 733.8
40000 kPa | 684.3 | 694 | 700.7 | 708.3 | 711.6 | 723.2 | 738.8
45000 kPa | 690.2 | 699.6 | 706.2 | 713.7 | 717 | 728.3 | 743.6
50000 kPa | 695.8 | 705.1 | 711.5 | 718.8 | 722 | 733.1 | 748.1
55000 kPa | 701.1 | 710.3 | 716.6 | 723.7 | 726.9 | 737.8 | 752.5
60000 kPa | 705.9 | 714.9 | 721.1 | 728.2 | 731.3 | 742.1 | 756.5
65000 kPa | 710.6 | 719.4 | 725.7 | 732.5 | 735.6 | 746.3 | 760.4
70000 kPa | 715.2 | 723.9 | 729.9 | 736.8 | 739.9 | 750.3 | 764.3
80000 kPa | 723.5 | 732 | 738 | 744.7 | 747.6 | 757.7 | 771.4
90000 kPa | 731.3 | 739.7 | 745.5 | 752 | 754.9 | 764.8 | 778.1
100000 kPa | 738.4 | 746.7 | 752.4 | 758.7 | 761.6 | 771.3 | 784.3
110000 kPa | 745.3 | 753.3 | 758.9 | 765.2 | 768 | 777.5 | 790.3
120000 kPa | 751.4 | 759.4 | 764.9 | 771.1 | 773.8 | 783.2 | 795.8
130000 kPa | 757.4 | 765.3 | 770.8 | 776.8 | 779.6 | 788.8 | 801.1
140000 kPa | 763.1 | 770.8 | 776.3 | 782.3 | 784.9 | 794.1 | 806.2
